# Assays:
# K-562 cells = experiment: Cell growth inhibition assay (CellTiter-Glo), K-562; type: cell-based, human; settings: Homo sapiens, K562
# Outline: (§1)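 Leukemia lines grown in their own media were exposed for 4 days at 37° C. to 3-fold serial dilutions from 10 μM (0.1% DMSO). Viability by CellTiter-Glo ATP luminescence, corrected for background and day-0 plate; IC50 and TGI from four-parameter fit against vehicle (100%) and medium (−100%).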
# THP-1 cells = experiment: Cell growth inhibition assay (CellTiter-Glo), THP-1; type: cell-based; settings: Homo sapiens
# Outline: as §1
# MV-4-11 cells = experiment: Cell growth inhibition assay (CellTiter-Glo), MV-4-11; type: cell-based; settings: Homo sapiens, MV4-11
# Outline: as §1
smiles,measurement,setting,value
"Cc1nn(C[C@H](O)C(F)(F)F)c2c1[C@@H](c1ccc(Cl)cc1)N(c1cc(C)c3nnc(C)n3c1)C2=O [Example 167, (R)-4-(4-chlorophenyl)-5-(3,8-dimethyl-[1,2,4]triazolo[4,3-a]pyridin-6-yl)-3-methyl-1-((S)-3,3,3-trifluoro-2-hydroxypropyl)-4,5-dihydropyrrolo-[3,4-c]pyrazol-6(1H)-one]",GI50,K-562 cells,294 nM
same,GI50,THP-1 cells,59.6 nM
same,GI50,MV-4-11 cells,27.6 nM
"Cc1nn(C(C)C)c2c1C(c1ccc(Cl)cc1F)N(c1cc(C)c3nnc(C)n3c1)C2=O (stereo not drawn) [Example 168, 4-(4-chloro-2-fluorophenyl)-5-(3,8-dimethyl-[1,2,4]triazolo[4,3-a]pyridin-6-yl)-1-isopropyl-3-methyl-4,5-dihydropyrrolo[3,4-c]pyrazol-6(1H)-one]",GI50,K-562 cells,105 nM
same,GI50,THP-1 cells,35.5 nM
same,GI50,MV-4-11 cells,24.1 nM
"Cc1cc(N2C(=O)c3nn(C(C)C)c(C)c3C2c2ccc(Cl)cc2F)cn2c(C)nnc12 (stereo not drawn) [Example 169, 4-(4-chloro-2-fluorophenyl)-5-(3,8-dimethyl-[1,2,4]triazolo[4,3-a]pyridin-6-yl)-2-isopropyl-3-methyl-4,5-dihydropyrrolo[3,4-c]pyrazol-6(2H)-one]",GI50,K-562 cells,276 nM
same,GI50,THP-1 cells,50.5 nM
same,GI50,MV-4-11 cells,31.1 nM
"CCn1nc(C)c2c1C(=O)N(c1cc(C)c(=O)n(C)c1)C2c1ccc(Cl)cc1F (stereo not drawn) [Example 170, 4-(4-chloro-2-fluorophenyl)-5-(1,5-dimethyl-6-oxo-1,6-dihydropyridin-3-yl)-1-ethyl-3-methyl-4,5-dihydropyrrolo-[3,4-c]pyrazol-6(1H)-one]",GI50,K-562 cells,48.5 nM
same,GI50,THP-1 cells,13.4 nM
same,GI50,MV-4-11 cells,7.66 nM
"CCn1nc2c(c1C)C(c1ccc(Cl)cc1F)N(c1cc(C)c(=O)n(C)c1)C2=O (stereo not drawn) [Example 171, 4-(4-chloro-2-fluorophenyl)-5-(1,5-dimethyl-6-oxo-1,6-dihydropyridin-3-yl)-2-ethyl-3-methyl-4,5-dihydropyrrolo[3,4-c]pyrazol-6(2H)-one]",GI50,K-562 cells,442 nM
same,GI50,THP-1 cells,118 nM
same,GI50,MV-4-11 cells,93.8 nM
"Cc1n[nH]c2c1C(c1ccc(F)cc1F)N(c1cc(C)c3nnc(C)n3c1)C2=O (stereo not drawn) [Example 172, 4-(2,4-difluorophenyl)-5-(3,8-dimethyl-[1,2,4]triazolo[4,3-a]pyridin-6-yl)-3-methyl-4,5-dihydropyrrolo[3,4-c]pyrazol-6(2H)-one]",GI50,K-562 cells,1080 nM
same,GI50,THP-1 cells,254 nM
same,GI50,MV-4-11 cells,176 nM
"COc1ncccc1-n1nc(C)c2c1C(=O)N(c1cc(C)c3nnc(C)n3c1)C2c1ccc(F)cc1F (stereo not drawn) [Example 173, 4-(2,4-difluorophenyl)-5-(3,8-dimethyl-[1,2,4]triazolo[4,3-a]pyridin-6-yl)-1-(2-methoxypyridin-3-yl)-3-methyl-4,5-dihydropyrrolo-[3,4-c]pyrazol-6(1H)-one]",GI50,K-562 cells,328 nM
same,GI50,THP-1 cells,91.6 nM
same,GI50,MV-4-11 cells,57.1 nM
"Cc1nn(C(C)C)c2c1C(c1ccc(F)cc1F)N(c1cc(C)c3nnc(C)n3c1)C2=O (stereo not drawn) [Example 174, 4-(2,4-difluorophenyl)-5-(3,8-dimethyl-[1,2,4]triazolo[4,3-a]pyridin-6-yl)-1-isopropyl-3-methyl-4,5-dihydropyrrolo[3,4-c]pyrazol-6(1H)-one]",GI50,K-562 cells,158 nM
same,GI50,THP-1 cells,43.8 nM
same,GI50,MV-4-11 cells,26.7 nM
"Cc1cc(N2C(=O)c3nn(C(C)C)c(C)c3C2c2ccc(F)cc2F)cn2c(C)nnc12 (stereo not drawn) [Example 175, 4-(2,4-difluorophenyl)-5-(3,8-dimethyl-[1,2,4]triazolo[4,3-a]pyridin-6-yl)-2-isopropyl-3-methyl-4,5-dihydropyrrolo-[3,4-c]pyrazol-6(2H)-one]",GI50,K-562 cells,192 nM
same,GI50,THP-1 cells,66.2 nM
same,GI50,MV-4-11 cells,42.2 nM
"Cc1nn(C2CC2)c2c1C(c1ccc(F)cc1F)N(c1cc(C)c3nnc(C)n3c1)C2=O (stereo not drawn) [Example 176, 1-cyclopropyl-4-(2,4-difluorophenyl)-5-(3,8-dimethyl-[1,2,4]triazolo[4,3-a]pyridin-6-yl)-3-methyl-4,5-dihydropyrrolo-[3,4-c]pyrazol-6(1H)-one]",GI50,K-562 cells,145 nM
same,GI50,THP-1 cells,55.6 nM
same,GI50,MV-4-11 cells,30.3 nM
"COc1ccccc1-n1nc(C)c2c1C(=O)N(c1cc(C)c3nnc(C)n3c1)C2c1ccc(F)cc1F (stereo not drawn) [Example 177, 4-(2,4-difluorophenyl)-5-(3,8-dimethyl-[1,2,4]triazolo[4,3-a]pyridin-6-yl)-1-(2-methoxyphenyl)-3-methyl-4,5-dihydropyrrolo-[3,4-c]pyrazol-6(1H)-one]",GI50,K-562 cells,331 nM
same,GI50,THP-1 cells,64.4 nM
same,GI50,MV-4-11 cells,67.5 nM
"Cc1nn(C2CC2)c2c1C(c1ccc(Cl)cc1F)N(c1cc(C)c3nnc(C)n3c1)C2=O (stereo not drawn) [Example 178, 4-(4-chloro-2-fluorophenyl)-1-cyclopropyl-5-(3,8-dimethyl-[1,2,4]triazolo[4,3-a]pyridin-6-yl)-3-methyl-4,5-dihydropyrrolo[3,4-c]pyrazol-6(1H)-one]",GI50,K-562 cells,137 nM
same,GI50,THP-1 cells,42.5 nM
same,GI50,MV-4-11 cells,28.2 nM
"Cc1nn(C2CC2)c2c1C(c1ccc(Cl)cc1F)N(c1cc(C)c(=O)n(C)c1)C2=O (stereo not drawn) [Example 179, 4-(4-chloro-2-fluorophenyl)-1-cyclopropyl-5-(1,5-dimethyl-6-oxo-1,6-dihydropyridin-3-yl)-3-methyl-4,5-dihydropyrrolo[3,4-c]pyrazol-6(1H)-one]",GI50,K-562 cells,372 nM
same,GI50,THP-1 cells,112 nM
same,GI50,MV-4-11 cells,77.4 nM
"Cc1nn(C(C)C)c2c1C(c1ccc(Cl)cc1F)N(c1cc(C)c(=O)n(C)c1)C2=O (stereo not drawn) [Example 180, 4-(4-chloro-2-fluorophenyl)-5-(1,5-dimethyl-6-oxo-1,6-dihydropyridin-3-yl)-1-isopropyl-3-methyl-4,5-dihydropyrrolo[3,4-c]pyrazol-6(1H)-one]",GI50,K-562 cells,266 nM
same,GI50,THP-1 cells,81.4 nM
same,GI50,MV-4-11 cells,68 nM
"CCn1nc(C)c2c1C(=O)N(c1cc(C)c3nnc(C)n3c1)C2c1ccc(F)cc1F (stereo not drawn) [Example 181, 4-(2,4-difluorophenyl)-5-(3,8-dimethyl-[1,2,4]triazolo[4,3-a]pyridin-6-yl)-1-ethyl-3-methyl-4,5-dihydropyrrolo[3,4-c]pyrazol-6(1H)-one]",GI50,K-562 cells,160 nM
same,GI50,THP-1 cells,51.9 nM
same,GI50,MV-4-11 cells,47.1 nM
"CCn1nc2c(c1C)C(c1ccc(F)cc1F)N(c1cc(C)c3nnc(C)n3c1)C2=O (stereo not drawn) [Example 182, 4-(2,4-difluorophenyl)-5-(3,8-dimethyl-[1,2,4]triazolo[4,3-a]pyridin-6-yl)-2-ethyl-3-methyl-4,5-dihydropyrrolo-[3,4-c]pyrazol-6(2H)-one]",GI50,K-562 cells,280 nM
same,GI50,THP-1 cells,87.5 nM
same,GI50,MV-4-11 cells,63.2 nM
"Cc1n[nH]c2c1C(c1ccc(Cl)cc1F)N(c1cc(C)c3nnc(C)n3c1)C2=O (stereo not drawn) [Example 183, 4-(4-chloro-2-fluorophenyl)-5-(3,8-dimethyl-[1,2,4]triazolo[4,3-a]pyridin-6-yl)-3-methyl-4,5-dihydropyrrolo-[3,4-c]pyrazol-6(2H)-one]",GI50,K-562 cells,659 nM
same,GI50,THP-1 cells,135 nM
same,GI50,MV-4-11 cells,76.1 nM
"COc1ncccc1-n1nc(C)c2c1C(=O)N(c1cc(C)c3nnc(C)n3c1)C2c1ccc(Cl)cc1F (stereo not drawn) [Example 184, 4-(4-chloro-2-fluorophenyl)-5-(3,8-dimethyl-[1,2,4]triazolo[4,3-a]pyridin-6-yl)-1-(2-methoxypyridin-3-yl)-3-methyl-4,5-dihydropyrrolo-[3,4-c]pyrazol-6(1H)-one]",GI50,K-562 cells,394 nM
same,GI50,THP-1 cells,131 nM
same,GI50,MV-4-11 cells,59.6 nM
"CCn1nc(C)c2c1C(=O)N(c1cc(C)c3nnc(C)n3c1)C2c1ccc(Cl)cc1F (stereo not drawn) [Example 185, 4-(4-chloro-2-fluorophenyl)-5-(3,8-dimethyl-[1,2,4]triazolo[4,3-a]pyridin-6-yl)-1-ethyl-3-methyl-4,5-dihydropyrrolo-[3,4-c]pyrazol-6(1H)-one]",GI50,K-562 cells,136 nM
same,GI50,THP-1 cells,36.8 nM
same,GI50,MV-4-11 cells,24.2 nM
"CCn1nc2c(c1C)C(c1ccc(Cl)cc1F)N(c1cc(C)c3nnc(C)n3c1)C2=O (stereo not drawn) [Example 186, 4-(4-chloro-2-fluorophenyl)-5-(3,8-dimethyl-[1,2,4]triazolo[4,3-a]pyridin-6-yl)-2-ethyl-3-methyl-4,5-dihydropyrrolo-[3,4-c]pyrazol-6(2H)-one]",GI50,K-562 cells,208 nM
same,GI50,THP-1 cells,61.5 nM
same,GI50,MV-4-11 cells,44.1 nM
"COc1ccccc1-n1nc(C)c2c1C(=O)N(c1cc(C)c3nnc(C)n3c1)C2c1ccc(Cl)cc1F (stereo not drawn) [Example 187, 4-(4-chloro-2-fluorophenyl)-5-(3,8-dimethyl-[1,2,4]triazolo[4,3-a]pyridin-6-yl)-1-(2-methoxyphenyl)-3-methyl-4,5-dihydropyrrolo-[3,4-c]pyrazol-6(1H)-one]",GI50,K-562 cells,655 nM
same,GI50,THP-1 cells,168 nM
same,GI50,MV-4-11 cells,144 nM
"Cc1nn(C(C)C)c2c1[C@@H](c1ccc(Cl)cc1F)N(c1cc(C)c3nnc(C)n3c1)C2=O [Example 189, (S)-4-(4-chloro-2-fluorophenyl)-5-(3,8-dimethyl-[1,2,4]triazolo[4,3-a]pyridin-6-yl)-1-isopropyl-3-methyl-4,5-dihydropyrrolo[3,4-c]pyrazol-6(1H)-one]",GI50,K-562 cells,88.5 nM
same,GI50,THP-1 cells,11.3 nM
same,GI50,MV-4-11 cells,14.1 nM
"COc1ncccc1-n1nc2c(c1C)C(c1ccc(F)cc1F)N(c1cc(C)c3nnc(C)n3c1)C2=O (stereo not drawn) [Example 193, 4-(2,4-difluorophenyl)-5-(3,8-dimethyl-[1,2,4]triazolo[4,3-a]pyridin-6-yl)-2-(2-methoxypyridin-3-yl)-3-methyl-4,5-dihydropyrrolo-[3,4-c]pyrazol-6(2H)-one]",GI50,K-562 cells,202 nM
same,GI50,THP-1 cells,66.2 nM
same,GI50,MV-4-11 cells,58 nM
"COc1ncccc1-n1nc2c(c1C)C(c1ccc(Cl)cc1F)N(c1cc(C)c3nnc(C)n3c1)C2=O (stereo not drawn) [Example 194, 4-(4-chloro-2-fluorophenyl)-5-(3,8-dimethyl-[1,2,4]triazolo[4,3-a]pyridin-6-yl)-2-(2-methoxypyridin-3-yl)-3-methyl-4,5-dihydropyrrolo-[3,4-c]pyrazol-6(2H)-one]",GI50,K-562 cells,245 nM
same,GI50,THP-1 cells,73.2 nM
same,GI50,MV-4-11 cells,48.6 nM
